# Assay results taken from patent US10988478B1, “Pyrazolo[1,5a]pyrimidine derivatives as IRAK4 modulators” (Genentech, Inc., priority 2015, dated 2021).
# Biological target: human IRAK4 (Homo sapiens (Human), UniProt Q9NWZ3)
# Test: IRAK4 kinase inhibition, Transcreener fluorescence polarization ADP assay
# Format: biochemical
# Conditions: recombinant full-length His6-IRAK4; 125 uM ATP; 90 min; Ki computed using ATP Km 642 uM
# Experimental: Compounds were assayed for inhibition of human IRAK4 and IRAK1 catalytic activity using recombinant enzyme produced from insect cells. Full-length IRAK4 protein, carrying an N-terminal His6-Tag, was obtained from Life Technologies (Carlsbad, Calif., USA). The IRAK1 construct was produced internally and was comprised of IRAK1 residues Arg194 to Ser712, preceded by an NH2-terminal His6 tag and the coding sequence for glutathione-S-transferase.
# Chain of human IRAK4 (Q9NWZ3 whole entry): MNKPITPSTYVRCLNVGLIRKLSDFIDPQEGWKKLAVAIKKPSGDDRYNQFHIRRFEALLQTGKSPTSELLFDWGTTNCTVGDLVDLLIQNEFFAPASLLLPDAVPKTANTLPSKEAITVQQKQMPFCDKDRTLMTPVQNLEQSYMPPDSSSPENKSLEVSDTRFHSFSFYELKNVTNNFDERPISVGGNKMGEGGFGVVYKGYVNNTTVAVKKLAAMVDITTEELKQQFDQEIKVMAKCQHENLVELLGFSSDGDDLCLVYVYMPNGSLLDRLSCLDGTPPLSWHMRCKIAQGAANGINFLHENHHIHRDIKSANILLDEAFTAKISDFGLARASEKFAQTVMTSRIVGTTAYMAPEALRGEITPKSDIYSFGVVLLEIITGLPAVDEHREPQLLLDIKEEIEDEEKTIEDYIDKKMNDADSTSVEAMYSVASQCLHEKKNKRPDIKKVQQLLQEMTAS
row,Ki [nM],Structure (SMILES)
1,12,"CC1(C)Cc2cc(NC(=O)c3cnn4cccnc34)c(N3CCCC3)cc2O1 [Example 214, N-(2,2-dimethyl-6-(pyrrolidin-1-yl)-2,3-dihydrobenzofuran-5-yl)pyrazolo[1,5-a]pyrimidine-3-carboxamide]"
2,3,"CC1(C)Cc2cc(NC(=O)c3cnn4cccnc34)c(N3CCC(C#N)CC3)cc2O1 [Example 216, N-(6-(4-cyanopiperidin-1-yl)-2,2-dimethyl-2,3-dihydrobenzofuran-5-yl)pyrazolo[1,5-a]pyrimidine-3-carboxamide]"
3,15,"CC1(C)Cc2cc(NC(=O)c3cnn4cccnc34)c(N3CCC(F)(F)C3)cc2O1 [Example 217, N-(6-(3,3-difluoropyrrolidin-1-yl)-2,2-dimethyl-2,3-dihydrobenzofuran-5-yl)pyrazolo[1,5-a]pyrimidine-3-carboxamide]"
4,17,"CC1(C)Cc2cc(NC(=O)c3cnn4cccnc34)c(N3CCC(C(F)(F)F)CC3)cc2O1 [Example 218, N-(2,2-dimethyl-6-(4-(trifluoromethyl)piperidin-1-yl)-2,3-dihydrobenzofuran-5-yl)pyrazolo[1,5-a]pyrimidine-3-carboxamide]"
5,82,"CC(C)C(=O)N1CCN(c2cc3c(cc2NC(=O)c2cnn4cccnc24)CC(C)(C)O3)CC1 [Example 219, N-(6-(4-isobutyrylpiperazin-1-yl)-2,2-dimethyl-2,3-dihydrobenzofuran-5-yl)pyrazolo[1,5-a]pyrimidine-3-carboxamide]"
6,75,"CC(=O)N1CCCN(c2cc3c(cc2NC(=O)c2cnn4cccnc24)CC(C)(C)O3)CC1 [Example 220, N-(6-(4-acetyl-1,4-diazepan-1-yl)-2,2-dimethyl-2,3-dihydrobenzofuran-5-yl)pyrazolo[1,5-a]pyrimidine-3-carboxamide]"
7,330,"CN1CCN(c2cc3c(cc2NC(=O)c2cnn4cccnc24)CC(C)(C)O3)CC(O)C1 (stereo not shown) [Example 224, N-[6-(6-hydroxy-4-methyl-1,4-diazepan-1-yl)-2,2-dimethyl-3H-benzofuran-5-yl]pyrazolo[1,5-a]pyrimidine-3-carboxamide]"
8,6,"CC1(C)Cc2cc(NC(=O)c3cnn4cccnc34)c(N3CCN(C(C)(C)C(N)=O)CC3)cc2O1 [Example 226, N-(6-(4-(1-Amino-2-methyl-1-oxopropan-2-yl)piperazin-1-yl)-2,2-dimethyl-2,3-dihydrobenzofuran-5-yl)pyrazolo[1,5-a]pyrimidine-3-carboxamide]"
9,33,"CC1(C)Cc2cc(NC(=O)c3cnn4cccnc34)c(N3CC4CCOC4C3)cc2O1 (stereo not shown) [Example 234, N-(6-(Hexahydro-5H-furo[2,3-c]pyrrol-5-yl)-2,2-dimethyl-2,3-dihydrobenzofuran-5-yl)pyrazolo[1,5-a]pyrimidine-3-carboxamide]"
10,13,"CC1(C)Cc2cc(NC(=O)c3cnn4cccnc34)c(N3CCC(C(N)=O)C3)cc2O1 (stereo not shown) [Example 236, N-(6-(3-Carbamoylpyrrolidin-1-yl)-2,2-dimethyl-2,3-dihydrobenzofuran-5-yl)pyrazolo[1,5-a]pyrimidine-3-carboxamide]"
11,27,"CC1(C)Cc2cc(NC(=O)c3cnn4cccnc34)c(N3CCC4CC43)cc2O1 (stereo not shown) [Example 240, N-(6-(2-Azabicyclo[3.1.0]hexan-2-yl)-2,2-dimethyl-2,3-dihydrobenzofuran-5-yl)pyrazolo[1,5-a]pyrimidine-3-carboxamide]"
12,15,"CC1(C)Cc2cc(NC(=O)c3cnn4cccnc34)c(N3CCC(S(N)(=O)=O)C3)cc2O1 (stereo not shown) [Example 241, N-(2,2-Dimethyl-6-(3-sulfamoylpyrrolidin-1-yl)-2,3-dihydrobenzofuran-5-yl)pyrazolo[1,5-a]pyrimidine-3-carboxamide]"
13,28,"CC1(C)Cc2cc(NC(=O)c3cnn4cccnc34)c(N3CCN(CC(=O)NC4CC4)CC3)cc2O1 [Example 242, N-(6-(4-(2-(Cyclopropylamino)-2-oxoethyl)piperazin-1-yl)-2,2-dimethyl-2,3-dihydrobenzofuran-5-yl)pyrazolo[1,5-a]pyrimidine-3-carboxamide]"
14,10,"CC1(C)Cc2cc(NC(=O)c3cnn4cccnc34)c(N3CCC(C(O)C(F)(F)F)CC3)cc2O1 (stereo not shown) [Example 245, N-(2,2-Dimethyl-6-(4-(2,2,2-trifluoro-1-hydroxyethyl)piperidin-1-yl)-2,3-dihydrobenzofuran-5-yl)pyrazolo[1,5-a]pyrimidine-3-carboxamide]"

# Second part, the molecule before the results:
row,Structure (SMILES),Ki [nM]
1,"CC1(C)Cc2cc(NC(=O)c3cnn4cccnc34)c(N3CCC4(CC3)CNC(=O)C4)cc2O1 [Example 213, N-(2,2-dimethyl-6-(3-oxo-2,8-diazaspiro[4.5]decan-8-yl)-2,3-dihydrobenzofuran-5-yl)pyrazolo[1,5-a]pyrimidine-3-]",3
2,"CC1(C)Cc2cc(NC(=O)c3cnn4cccnc34)c(N3CC4C(CO)C4C3)cc2O1 (stereo not shown) [Example 215, N-(6-(6-(hydroxymethyl)-3-azabicyclo[3.1.0]hexan-3-yl)-2,2-azabicyclo[3.1.0]dimethyl-2,3-dihydrobenzofuran-5-yl)pyrazolo[1,5-a]pyrimidine-3-carboxamide]",5.4
3,"CC(C)NC(=O)CN1CCN(c2cc3c(cc2NC(=O)c2cnn4cccnc24)CC(C)(C)O3)CC1 [Example 225, N-(6-(4-(2-(Isopropylamino)-2-oxoethyl)piperazin-1-yl)-2,2-dimethyl-2,3-dihydrobenzofuran-5-yl)pyrazolo[1,5-a]pyrimidine-3-carboxamide]",45
4,"C[C@@H]1CN(c2cc3c(cc2NC(=O)c2cnn4cccnc24)CC(C)(C)O3)C[C@H](C)N1CC(N)=O [Example 227, N-(6-((3R,5S)-4-(2-Amino-2-oxoethyl)-3,5-dimethylpiperazin-1-yl)-2,2-dimethyl-2,3-dihydrobenzofuran-5-yl)pyrazolo[1,5-a]pyrimidine-3-carboxamide]",490
5,"CC1(C)Cc2cc(NC(=O)c3cnn4cccnc34)c(N3CCN(CC(=O)N4CCOCC4)CC3)cc2O1 [Example 228, N-(2,2-Dimethyl-6-(4-(2-morpholino-2-oxoethyl)piperazin-1-yl)-2,3-dihydrobenzofuran-5-yl)pyrazolo[1,5-a]pyrimidine-3-carboxamide]",48
6,"Cc1nccc(C2CCN(c3cc4c(cc3NC(=O)c3cnn5cccnc35)CC(C)(C)O4)C2)n1 (stereo not shown) [Example 229, N-(2,2-Dimethyl-6-(3-(2-methylpyrimidin-4-yl)pyrrolidin-1-yl)-2,3-dihydrobenzofuran-5-yl)pyrazolo[1,5-a]pyrimidine-3-carboxamide]",260
7,"CC1(C)Cc2cc(NC(=O)c3cnn4cccnc34)c(N3CCN(CC4CCCO4)CC3)cc2O1 (stereo not shown) [Example 230, N-(2,2-Dimethyl-6-(4-((tetrahydrofuran-2-yl)methyl)piperazin-1-yl)-2,3-dihydrobenzofuran-5-yl)pyrazolo[1,5-a]pyrimidine-3-carboxamide]",18
8,"CC1(C)Cc2cc(NC(=O)c3cnn4cccnc34)c(N3CCN(CCn4ccnc4)CC3)cc2O1 [Example 231, N-(6-(4-(2-(1H-Imidazo1-1-yl)ethyl)piperazin-1-yl)-2,2-dimethyl-2,3-dihydrobenzofuran-5-yl)pyrazolo[1,5-a]pyrimidine-3-carboxamide]",3
9,"CN(C)C(=O)CN1CCN(c2cc3c(cc2NC(=O)c2cnn4cccnc24)CC(C)(C)O3)CC1 [Example 232, N-(6-(4-(2-(Dimethylamino)-2-oxoethyl)piperazin-1-yl)-2,2-dimethyl-2,3-dihydrobenzofuran-5-yl)pyrazolo[1,5-a]pyrimidine-3-carboxamide]",34
10,CC1(C)Cc2cc(NC(=O)c3cnn4cccnc34)c(N3CCn4ccnc4C3)cc2O1 [Example 233],100
11,"CC1(C)Cc2cc(NC(=O)c3cnn4cccnc34)c(N3CCC(c4nnco4)CC3)cc2O1 [Example 235, N-(6-(4-(1,3,4-Oxadiazol-2-yl)piperidin-1-yl)-2,2-dimethyl-2,3-dihydrobenzofuran-5-yl)pyrazolo[1,5-a]pyrimidine-3-carboxamide]",4
12,"CC1(C)Cc2cc(NC(=O)c3cnn4cccnc34)c(N3CC4COCC(C3)C4O)cc2O1 (stereo not shown) [Example 237, N-(6-(9-Hydroxy-3-oxa-7-azabicyclo[3.3.1]nonan-7-yl)-2,2-dimethyl-2,3-dihydrobenzofuran-5-yl)pyrazolo[1,5-a]pyrimidine-3-carboxamide]",810
13,"CC1(C)Cc2cc(NC(=O)c3cnn4cccnc34)c(N3CCc4[nH]cnc4C3)cc2O1 [Example 238, N-(2,2-Dimethyl-6-(1,4,6,7-tetrahydro-5H-imidazo[4,5-c]pyridin-5-yl)-2,3-dihydrobenzofuran-5-yl)pyrazolo[1,5-a]pyrimidine-3-carboxamide]",36
14,"COC1C2CCC1N(c1cc3c(cc1NC(=O)c1cnn4cccnc14)CC(C)(C)O3)C2 (stereo not shown) [Example 239, N-(6-(7-Methoxy-2-azabicyclo[2.2.1]heptan-2-yl)-2,2-dimethyl-2,3-dihydrobenzofuran-5-yl)pyrazolo[1,5-a]pyrimidine-3-carboxamide]",120
15,"CC1(C)Cc2cc(NC(=O)c3cnn4cccnc34)c(N3CCN(CC(=O)N4CCCC4)CC3)cc2O1 [Example 243, N-(2,2-Dimethyl-6-(4-(2-oxo-2-(pyrrolidin-1-yl)ethyl)piperazin-1-yl)-2,3-dihydrobenzofuran-5-yl)pyrazolo[1,5-a]pyrimidine-3-carboxamide]",250
16,"CC(C(=O)NC1CC1)N1CCN(c2cc3c(cc2NC(=O)c2cnn4cccnc24)CC(C)(C)O3)CC1 (stereo not shown) [Example 244, N-(6-(4-(1-(Cyclopropylamino)-1-oxopropan-2-yl)piperazin-1-yl)-2,2-dimethyl-2,3-dihydrobenzofuran-5-yl)pyrazolo[1,5-a]pyrimidine-3-carboxamide]",36
17,"CC1(C)Cc2cc(NC(=O)c3cnn4cccnc34)c(N3Cc4cn[nH]c4C3)cc2O1 [Example 246, N-(6-(4,6-dihydropyrrolo[3,4-c]pyrazol-5(1H)-yl)-2,2-dimethyl-2,3-dihydrobenzofuran-5-yl)pyrazolo[1,5-a]pyrimidine-3-carboxamide]",6
